# Read-outs that look alike come from different tables or passages of the source.
# Assays:
# [1] = Steady-state plasma pharmacokinetics; assay type: in vivo, HIV-infected patients (human); conditions: for AUC(0-t): AUC0–24, Visit 2 (day 21), ATV/RTV 300/100 mg once daily with CEP-1347 50 mg twice daily, arithmetic mean (SD), n=19
# [2] = cited from earlier work
# HIV-1 = assay: Plasma viral load during the 21-day study; assay type: in vivo, HIV-infected patients (human); conditions: day 21, antiretroviral therapy (ATV/RTV + TDF/FTC) with concurrent CEP-1347 50 mg twice daily; baseline 3.80±3.70
# [3] = monkeys; background statement, ref not given; cited from earlier work
# [4] = rats; background statement, ref not given; cited from earlier work
# [5] = Safety and tolerability in the clinical study; assay type: in vivo, HIV-infected patients (human); conditions: CEP-1347 50 mg twice daily for 20 days with ATV/RTV and TDF/FTC
# [6] = CEP-1347 50 mg twice daily with ATV/r, day 21, mean (SD)
compound,measurement,setting,value
"CC(C)c1nc(CN(C)C(=O)N[C@H](C(=O)N[C@@H](Cc2ccccc2)C[C@H](O)[C@H](Cc2ccccc2)NC(=O)OCc2cncs2)C(C)C)cs1 [RTV, Ritonavir]",AUC0–24 GMR (90 % CI),"[1]; human, in vivo","1.12 (0.90, 1.39)"
same,Cmax GMR (90 % CI),"[1]; human, in vivo","1.07 (0.85, 1.34)"
same,R GMR (90 % CI),"[1]; human, in vivo","1.05 (0.94, 1.16)"
same,T1/2 GMR (90 % CI),"[1]; human, in vivo","1.20 (0.92, 1.56)"
same,Tmax GMR (90 % CI),"[1]; human, in vivo","0.89 (0.79, 1.15)"
same,Cmax,"[1]; human, plasma, oral",1400 ng/mL
same,half-life,"[1]; human, plasma, oral",354 min
same,half-life,"[1]; human, plasma, oral, 50 mg",348 min
same,AUC(0-t),"[1]; human, plasma, oral",13200 ng·h/mL
"COC(=O)N[C@H](C(=O)N[C@@H](Cc1ccccc1)[C@@H](O)CN(Cc1ccc(-c2ccccn2)cc1)NC(=O)[C@@H](NC(=O)OC)C(C)(C)C)C(C)(C)C [ATV, Atazanavir]",clearance,"[2]; population analysis, patients given ATV/r at 300/100 mg/day, ref Colombo et al. 2006",12.9 L/h
same,clearance,"[2]; previously reported in patients, ref Haberl et al. 2010",8.5 L/h
same,Clss/F,"[1]; Visit 1 (day 1), ATV/RTV before CEP-1347, mean (SD)",12.0 (10.3) L/h
same,Clss/F,"[1]; Visit 1 (day 1), ATV/RTV before CEP-1347, mean (SD), listed as atazanavir",12.0 L/h
same,Clss/F,"[1]; Visit 2 (day 21), ATV/RTV with CEP-1347 50 mg twice daily, mean (SD)",9.3 (10.7) L/h
same,AUC0–24 GMR (90 % CI),"[1]; human, in vivo",1.30 (0.92–1.85)
same,Clss/F GMR (90 % CI),"[1]; human, in vivo",0.77 (0.54–1.09)
same,Cmax GMR (90 % CI),"[1]; human, in vivo",1.14 (0.79–1.67)
same,R GMR (90 % CI),"[1]; human, in vivo",1.12 (1.05–1.20)
same,Tmax GMR (90 % CI),"[1]; human, in vivo",0.86 (0.67–1.11)
same,increase in T1/2,"[1]; human, in vivo",31%
same,increase in accumulation ratio (R),"[1]; human, in vivo",15%
same,Cmax,"[1]; human, plasma, oral",4000 ng/mL
same,Tmax,"[1]; human, plasma, oral",2 h
same,half-life,"[1]; human, plasma, oral",762 min
same,Cmax,"[1]; human, plasma, oral, 50 mg",4500 ng/mL
same,Tmax,"[1]; human, plasma, oral, 50 mg",2 h
same,half-life,"[1]; human, plasma, oral, 50 mg",954 min
same,AUC(0-t),"[1]; human, plasma, oral",49600 ng·h/mL
CCSCc1ccc2c(c1)c1c3c(c4c5cc(CSCC)ccc5n5c4c1n2[C@H]1C[C@](O)(C(=O)OC)[C@]5(C)O1)CNC3=O [CEP-1347],average plasma viral load,HIV-1,2.41±2.03 log copies/mL
same,Clss/F,[1]; [6],22.3 (15.3) L/h
same,R (accumulation ratio),[1]; [6],5.1 (1.5)
same,AUC,"[1]; human, plasma, oral, 50 mg",2630 ng·h/mL
same,Cmax,"[1]; human, plasma, oral, 50 mg",427 ng/mL
same,Tmax,"[1]; human, plasma, oral, 50 mg",3 h
same,half-life,"[1]; human, plasma, oral, 50 mg",2110 min
same,recovery of single oral doses in feces,[3],at least 95%
same,recovery of single oral doses in feces,[4],at least 95%
same,tolerability,[5],well tolerated

# Source: paper PMC3760277 (Journal of neurovirology, 2013)
